{"source": "patent US20230248626A1", "about": "“Compositions Comprising (Bio)-Alkanediols” (Symrise AG, priority 0001, published 2023)", "type_in_all_cases": "cell-based", "key": {"Candida albicans (CA)": {"system": "Candida albicans (CA)", "assay": "Preservation efficacy test (PET), European Pharmacopoeia 5.1.3", "in_short": "(§1)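 Preparations challenged with prescribed inoculums per European Pharmacopoeia 5.1.3, counting microorganisms after the prescribed time. Adequate preservation means a significant fall or no increase in counts.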"}, "[1]": {"system": "Staphylococcus aureus (SA)", "assay": "Preservation efficacy test (PET), European Pharmacopoeia 5.1.3", "in_short": "as §1"}, "[2]": {"system": "Pseudomonas aeruginosa (PA)", "assay": "Preservation efficacy test (PET), European Pharmacopoeia 5.1.3", "in_short": "as §1"}, "Escherichia coli (EC)": {"system": "Escherichia coli (EC)", "assay": "Preservation efficacy test (PET), European Pharmacopoeia 5.1.3", "in_short": "as §1"}, "[3]": {"system": "Aspergillus brasiliensis (AB)", "assay": "Preservation efficacy test (PET), European Pharmacopoeia 5.1.3", "in_short": "as §1"}, "Staphylococcus aureus": {"system": "Staphylococcus aureus", "assay": "MIC test (growth inhibition, 96 well plates, OD)", "conditions": "read-out: Minimum Inhibitory Concentration (MIC)"}, "Escherichia coli": {"system": "Escherichia coli", "assay": "MIC test (growth inhibition, 96 well plates, OD)", "conditions": "read-out: Minimum Inhibitory Concentration (MIC)"}, "Candida albicans": {"system": "Candida albicans", "assay": "MIC test (growth inhibition, 96 well plates, OD)", "conditions": "read-out: Minimum Inhibitory Concentration (MIC)"}, "Propionibacterium acnes": {"system": "Propionibacterium acnes", "assay": "MIC test (growth inhibition, 96 well plates, OD)", "conditions": "Cutibacterium acnes; read-out: Minimum Inhibitory Concentration (MIC)"}, "Staphylococcus hominis": {"system": "Staphylococcus hominis", "assay": "MIC test (growth inhibition, 96 well plates, OD)", "conditions": "read-out: Minimum Inhibitory Concentration (MIC)"}, "Corynebacterium jeikeium": {"system": "Corynebacterium jeikeium", "assay": "MIC test (growth inhibition, 96 well plates, OD)", "conditions": "read-out: Minimum Inhibitory Concentration (MIC)"}}}
{"smiles": "CCCCCC(O)C(C)O", "note": "(centres unmarked) [2,3-octanediol]", "values": [{"measurement": "number of microorganisms after 2 days", "setting": "Candida albicans (CA); 0.1% in shampoo", "result": "200,000"}, {"measurement": "number of microorganisms after 7 days", "setting": "Candida albicans (CA); 0.1% in shampoo", "result": "19,000"}, {"measurement": "number of microorganisms after 14 days", "setting": "Candida albicans (CA); 0.1% in shampoo", "result": 390}, {"measurement": "number of microorganisms after 28 days", "setting": "Candida albicans (CA); 0.1% in shampoo", "result": 1}, {"measurement": "number of microorganisms after 2 days", "setting": "Candida albicans (CA); 0.1% in wet wipes solution", "result": "5,000,000"}, {"measurement": "number of microorganisms after 7 days", "setting": "Candida albicans (CA); 0.1% in wet wipes solution", "result": "2,400,000"}, {"measurement": "number of microorganisms after 14 days", "setting": "Candida albicans (CA); 0.1% in wet wipes solution", "result": "6,900,000"}, {"measurement": "number of microorganisms after 28 days", "setting": "Candida albicans (CA); 0.1% in wet wipes solution", "result": "5,500,000"}, {"measurement": "number of microorganisms after 2 days", "setting": "Candida albicans (CA); 0.2% in o/w emulsion", "result": "2,000,000"}, {"measurement": "number of microorganisms after 7 days", "setting": "Candida albicans (CA); 0.2% in o/w emulsion", "result": "1,800,000"}, {"measurement": "number of microorganisms after 14 days", "setting": "Candida albicans (CA); 0.2% in o/w emulsion", "result": "1,900,000"}, {"measurement": "number of microorganisms after 28 days", "setting": "Candida albicans (CA); 0.2% in o/w emulsion", "result": "390,000"}, {"measurement": "number of microorganisms after 2 days", "setting": "Candida albicans (CA); 0.4% in shampoo", "result": "44,000"}, {"measurement": "number of microorganisms after 7 days", "setting": "Candida albicans (CA); 0.4% in shampoo", "result": "17,000"}, {"measurement": "number of microorganisms after 14 days", "setting": "Candida albicans (CA); 0.4% in shampoo", "result": 510}, {"measurement": "number of microorganisms after 28 days", "setting": "Candida albicans (CA); 0.4% in shampoo", "result": 1}, {"measurement": "number of microorganisms after 2 days", "setting": "[1]; 0.1% in shampoo", "result": "2,000"}, {"measurement": "number of microorganisms after 7 days", "setting": "[1]; 0.1% in shampoo", "result": 1}, {"measurement": "number of microorganisms after 14 days", "setting": "[1]; 0.1% in shampoo", "result": 1}, {"measurement": "number of microorganisms after 28 days", "setting": "[1]; 0.1% in shampoo", "result": 1}, {"measurement": "number of microorganisms after 2 days", "setting": "[1]; 0.1% in wet wipes solution", "result": 50}, {"measurement": "number of microorganisms after 7 days", "setting": "[1]; 0.1% in wet wipes solution", "result": 50}, {"measurement": "number of microorganisms after 14 days", "setting": "[1]; 0.1% in wet wipes solution", "result": 50}, {"measurement": "number of microorganisms after 28 days", "setting": "[1]; 0.1% in wet wipes solution", "result": 50}, {"measurement": "number of microorganisms after 2 days", "setting": "[1]; 0.2% in o/w emulsion", "result": "1,300,000"}, {"measurement": "number of microorganisms after 7 days", "setting": "[1]; 0.2% in o/w emulsion", "result": "84,000"}, {"measurement": "number of microorganisms after 14 days", "setting": "[1]; 0.2% in o/w emulsion", "result": 1}, {"measurement": "number of microorganisms after 28 days", "setting": "[1]; 0.2% in o/w emulsion", "result": 1}, {"measurement": "number of microorganisms after 2 days", "setting": "[1]; 0.4% in shampoo", "result": "4,000"}, {"measurement": "number of microorganisms after 7 days", "setting": "[1]; 0.4% in shampoo", "result": 1}, {"measurement": "number of microorganisms after 14 days", "setting": "[1]; 0.4% in shampoo", "result": 1}, {"measurement": "number of microorganisms after 28 days", "setting": "[1]; 0.4% in shampoo", "result": 1}, {"measurement": "number of microorganisms after 2 days", "setting": "[2]; 0.1% in shampoo", "result": "280,000"}, {"measurement": "number of microorganisms after 7 days", "setting": "[2]; 0.1% in shampoo", "result": "3,700,000"}, {"measurement": "number of microorganisms after 14 days", "setting": "[2]; 0.1% in shampoo", "result": "13,000,000"}, {"measurement": "number of microorganisms after 28 days", "setting": "[2]; 0.1% in shampoo", "result": "8,100,000"}, {"measurement": "number of microorganisms after 2 days", "setting": "[2]; 0.1% in wet wipes solution", "result": "1,300,000"}, {"measurement": "number of microorganisms after 7 days", "setting": "[2]; 0.1% in wet wipes solution", "result": "630,000"}, {"measurement": "number of microorganisms after 14 days", "setting": "[2]; 0.1% in wet wipes solution", "result": "310,000"}, {"measurement": "number of microorganisms after 28 days", "setting": "[2]; 0.1% in wet wipes solution", "result": "27,000"}, {"measurement": "number of microorganisms after 2 days", "setting": "[2]; 0.2% in o/w emulsion", "result": 1}, {"measurement": "number of microorganisms after 7 days", "setting": "[2]; 0.2% in o/w emulsion", "result": 1}, {"measurement": "number of microorganisms after 14 days", "setting": "[2]; 0.2% in o/w emulsion", "result": 1}, {"measurement": "number of microorganisms after 28 days", "setting": "[2]; 0.2% in o/w emulsion", "result": 1}, {"measurement": "number of microorganisms after 2 days", "setting": "[2]; 0.4% in shampoo", "result": "21,000"}, {"measurement": "number of microorganisms after 7 days", "setting": "[2]; 0.4% in shampoo", "result": 1}, {"measurement": "number of microorganisms after 14 days", "setting": "[2]; 0.4% in shampoo", "result": 1}, {"measurement": "number of microorganisms after 28 days", "setting": "[2]; 0.4% in shampoo", "result": 1}, {"measurement": "number of microorganisms after 2 days", "setting": "Escherichia coli (EC); 0.1% in shampoo", "result": "2,600,000"}, {"measurement": "number of microorganisms after 7 days", "setting": "Escherichia coli (EC); 0.1% in shampoo", "result": "3,800,000"}, {"measurement": "number of microorganisms after 14 days", "setting": "Escherichia coli (EC); 0.1% in shampoo", "result": "1,500,000"}, {"measurement": "number of microorganisms after 28 days", "setting": "Escherichia coli (EC); 0.1% in shampoo", "result": "1,300,000"}, {"measurement": "number of microorganisms after 2 days", "setting": "Escherichia coli (EC); 0.1% in wet wipes solution", "result": "1,300,000"}, {"measurement": "number of microorganisms after 7 days", "setting": "Escherichia coli (EC); 0.1% in wet wipes solution", "result": "2,600,000"}, {"measurement": "number of microorganisms after 14 days", "setting": "Escherichia coli (EC); 0.1% in wet wipes solution", "result": "850,000"}, {"measurement": "number of microorganisms after 28 days", "setting": "Escherichia coli (EC); 0.1% in wet wipes solution", "result": "1,600"}, {"measurement": "number of microorganisms after 2 days", "setting": "Escherichia coli (EC); 0.2% in o/w emulsion", "result": "48,000"}, {"measurement": "number of microorganisms after 7 days", "setting": "Escherichia coli (EC); 0.2% in o/w emulsion", "result": 290}, {"measurement": "number of microorganisms after 14 days", "setting": "Escherichia coli (EC); 0.2% in o/w emulsion", "result": 1}, {"measurement": "number of microorganisms after 28 days", "setting": "Escherichia coli (EC); 0.2% in o/w emulsion", "result": 1}, {"measurement": "number of microorganisms after 2 days", "setting": "Escherichia coli (EC); 0.4% in shampoo", "result": "1,100,000"}, {"measurement": "number of microorganisms after 7 days", "setting": "Escherichia coli (EC); 0.4% in shampoo", "result": "1,900,000"}, {"measurement": "number of microorganisms after 14 days", "setting": "Escherichia coli (EC); 0.4% in shampoo", "result": "2,100,000"}, {"measurement": "number of microorganisms after 28 days", "setting": "Escherichia coli (EC); 0.4% in shampoo", "result": "600,000"}, {"measurement": "number of microorganisms after 2 days", "setting": "[3]; 0.1% in shampoo", "result": "2,300,000"}, {"measurement": "number of microorganisms after 7 days", "setting": "[3]; 0.1% in shampoo", "result": "1,300,000"}, {"measurement": "number of microorganisms after 14 days", "setting": "[3]; 0.1% in shampoo", "result": "250,000"}, {"measurement": "number of microorganisms after 28 days", "setting": "[3]; 0.1% in shampoo", "result": "250,000"}, {"measurement": "number of microorganisms after 2 days", "setting": "[3]; 0.1% in wet wipes solution", "result": "12,000,000"}, {"measurement": "number of microorganisms after 7 days", "setting": "[3]; 0.1% in wet wipes solution", "result": "8,500,000"}, {"measurement": "number of microorganisms after 14 days", "setting": "[3]; 0.1% in wet wipes solution", "result": "9,300,000"}, {"measurement": "number of microorganisms after 28 days", "setting": "[3]; 0.1% in wet wipes solution", "result": "12,000,000"}, {"measurement": "number of microorganisms after 2 days", "setting": "[3]; 0.2% in o/w emulsion", "result": "1,700,000"}, {"measurement": "number of microorganisms after 7 days", "setting": "[3]; 0.2% in o/w emulsion", "result": "2,000,000"}, {"measurement": "number of microorganisms after 14 days", "setting": "[3]; 0.2% in o/w emulsion", "result": "2,100,000"}, {"measurement": "number of microorganisms after 28 days", "setting": "[3]; 0.2% in o/w emulsion", "result": "2,000,000"}, {"measurement": "number of microorganisms after 2 days", "setting": "[3]; 0.4% in shampoo", "result": "1,100,000"}, {"measurement": "number of microorganisms after 7 days", "setting": "[3]; 0.4% in shampoo", "result": "1,100,000"}, {"measurement": "number of microorganisms after 14 days", "setting": "[3]; 0.4% in shampoo", "result": "2,100,000"}, {"measurement": "number of microorganisms after 28 days", "setting": "[3]; 0.4% in shampoo", "result": "410,000"}, {"measurement": "MIC", "setting": "Staphylococcus aureus", "result": 5000, "unit": "µg/mL"}, {"measurement": "MIC", "setting": "Escherichia coli", "result": 2500, "unit": "µg/mL"}, {"measurement": "MIC", "setting": "Candida albicans", "result": 5000, "unit": "µg/mL"}, {"measurement": "MIC", "setting": "Propionibacterium acnes", "result": "> 5000", "unit": "µg/mL"}, {"measurement": "MIC", "setting": "Staphylococcus hominis", "result": "> 5000", "unit": "µg/mL"}, {"measurement": "MIC", "setting": "Corynebacterium jeikeium", "result": 5000, "unit": "µg/mL"}]}
